The values below come from patent US20240210412A1, “SULFONYL-TRIAZOLE COMPOUNDS USEFUL AS LIGANDS AND INHIBITORS OF PROSTAGLANDIN REDUCTASE 2” (University of Virginia Patent Foundation, priority 2021, published 2024).

Each structure is given as a SMILES string.

Holding throughout (test): SILAC LC-MS ABPP
Common to all, as to assay type: cell-based
Details in all cases: 25 μM 2 h, live DM93 cells

One assay has as its target T1, Q92734 (Homo sapiens, UniProt Q92734).
T1 construct: endogenous in cells; host or cells: DM93 cells (SILAC), live-cell treatment
In outline:
(§1)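 Readout is SILAC heavy/light LC-MS/MS quantification of HHS-475-labelled tyrosine peptides, reflecting blockade of probe labelling by ligand. DM93 cells were pretreated with 25 μM SuTEx ligand (heavy) or DMSO (light) for 2 h at 37 °C, then probed with 100 μM HHS-475 for 2 h.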

Another assay has as its target T2, P50749 (Homo sapiens, UniProt P50749).
T2 construct: Probe-modified proteins from the soluble fraction were conjugated to a desthiobiotin-azide tag; endogenous in cells; host or cells: DM93 cells (SILAC)
In outline: as §1

The target of the next assay is T3, O95373 (Homo sapiens, UniProt O95373).
T3 construct: endogenous in cells; host or cells: DM93 cells (SILAC)
T3 sequence (O95373 whole entry): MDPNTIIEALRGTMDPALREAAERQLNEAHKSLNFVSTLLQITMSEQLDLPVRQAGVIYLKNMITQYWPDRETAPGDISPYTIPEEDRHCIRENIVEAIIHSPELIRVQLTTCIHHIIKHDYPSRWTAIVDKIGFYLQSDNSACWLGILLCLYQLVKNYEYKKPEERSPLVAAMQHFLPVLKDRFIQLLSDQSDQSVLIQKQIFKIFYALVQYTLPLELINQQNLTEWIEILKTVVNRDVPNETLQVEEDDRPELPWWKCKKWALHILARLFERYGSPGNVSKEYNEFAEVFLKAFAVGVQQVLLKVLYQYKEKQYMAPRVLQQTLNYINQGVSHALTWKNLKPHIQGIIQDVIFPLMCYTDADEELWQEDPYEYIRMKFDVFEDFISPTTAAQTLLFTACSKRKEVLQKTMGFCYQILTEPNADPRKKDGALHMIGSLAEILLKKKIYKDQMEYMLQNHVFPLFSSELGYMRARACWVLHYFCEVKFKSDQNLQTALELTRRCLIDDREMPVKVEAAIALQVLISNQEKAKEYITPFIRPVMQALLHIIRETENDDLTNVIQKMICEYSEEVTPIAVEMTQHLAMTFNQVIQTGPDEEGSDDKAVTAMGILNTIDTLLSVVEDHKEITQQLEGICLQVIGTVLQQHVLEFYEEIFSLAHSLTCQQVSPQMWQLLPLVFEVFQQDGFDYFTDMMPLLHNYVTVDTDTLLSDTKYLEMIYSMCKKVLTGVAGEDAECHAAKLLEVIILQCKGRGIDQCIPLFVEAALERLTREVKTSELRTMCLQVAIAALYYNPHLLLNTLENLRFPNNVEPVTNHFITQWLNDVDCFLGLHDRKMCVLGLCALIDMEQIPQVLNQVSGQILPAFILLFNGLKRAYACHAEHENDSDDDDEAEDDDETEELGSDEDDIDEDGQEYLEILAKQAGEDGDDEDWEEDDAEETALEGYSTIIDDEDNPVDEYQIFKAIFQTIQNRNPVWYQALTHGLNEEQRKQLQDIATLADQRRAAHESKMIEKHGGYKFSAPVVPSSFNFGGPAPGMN
The essentials: as §1

A further assay deals with T4, P06400 (Homo sapiens, UniProt P06400).
T4 construct: endogenous in cells; host or cells: DM93 cells (SILAC)
The essentials: as §1

In a further assay the target is T5, Q13107 (Homo sapiens, UniProt Q13107).
T5 construct: performing SuTEx compound screening directly in cells; endogenous in cells; host or cells: DM93 cells (SILAC), soluble fraction
T5 sequence (Q13107 whole entry): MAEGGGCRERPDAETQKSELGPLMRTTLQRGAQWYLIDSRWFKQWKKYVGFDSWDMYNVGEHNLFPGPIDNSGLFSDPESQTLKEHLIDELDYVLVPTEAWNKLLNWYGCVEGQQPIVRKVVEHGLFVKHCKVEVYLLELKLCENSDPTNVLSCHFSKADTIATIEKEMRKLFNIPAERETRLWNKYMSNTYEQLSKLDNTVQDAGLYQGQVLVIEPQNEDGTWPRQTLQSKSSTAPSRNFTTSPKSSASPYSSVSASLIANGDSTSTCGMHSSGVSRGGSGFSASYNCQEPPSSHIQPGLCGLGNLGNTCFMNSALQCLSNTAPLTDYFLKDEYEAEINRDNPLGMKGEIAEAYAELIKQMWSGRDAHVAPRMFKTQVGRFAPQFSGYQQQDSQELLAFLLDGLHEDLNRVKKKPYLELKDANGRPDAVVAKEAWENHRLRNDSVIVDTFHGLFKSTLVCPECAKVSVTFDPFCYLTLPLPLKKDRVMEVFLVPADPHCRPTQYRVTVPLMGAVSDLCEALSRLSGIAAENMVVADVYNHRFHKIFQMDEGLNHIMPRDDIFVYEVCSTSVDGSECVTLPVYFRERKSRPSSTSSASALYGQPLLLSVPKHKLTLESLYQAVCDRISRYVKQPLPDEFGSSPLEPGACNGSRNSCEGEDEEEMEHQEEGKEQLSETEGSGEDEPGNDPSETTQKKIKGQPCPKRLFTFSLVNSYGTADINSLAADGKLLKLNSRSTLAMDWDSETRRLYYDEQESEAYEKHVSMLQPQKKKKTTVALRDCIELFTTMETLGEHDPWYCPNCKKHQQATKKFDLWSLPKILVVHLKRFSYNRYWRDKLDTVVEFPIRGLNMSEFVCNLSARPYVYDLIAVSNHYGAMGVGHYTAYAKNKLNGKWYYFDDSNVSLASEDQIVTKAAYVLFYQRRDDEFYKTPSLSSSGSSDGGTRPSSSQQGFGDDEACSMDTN
In outline:
as §1

A further assay deals with T6, P62993 (Homo sapiens, UniProt P62993).
T6 construct: performing SuTEx compound screening directly in cells; endogenous in cells; host or cells: DM93 cells (SILAC)
T6 sequence (P62993 whole entry): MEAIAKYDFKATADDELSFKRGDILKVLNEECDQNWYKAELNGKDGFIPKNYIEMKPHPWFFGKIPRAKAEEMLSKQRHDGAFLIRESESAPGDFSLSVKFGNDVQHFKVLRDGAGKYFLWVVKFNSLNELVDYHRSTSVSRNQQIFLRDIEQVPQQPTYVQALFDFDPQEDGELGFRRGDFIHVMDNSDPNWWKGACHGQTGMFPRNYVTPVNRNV
In outline: as §1

A further assay deals with T7, Q14566 (Homo sapiens, UniProt Q14566).
T7 construct: performing SuTEx compound screening directly in cells; endogenous in cells; host or cells: DM93 cells (SILAC), soluble fraction
T7 sequence (Q14566 whole entry): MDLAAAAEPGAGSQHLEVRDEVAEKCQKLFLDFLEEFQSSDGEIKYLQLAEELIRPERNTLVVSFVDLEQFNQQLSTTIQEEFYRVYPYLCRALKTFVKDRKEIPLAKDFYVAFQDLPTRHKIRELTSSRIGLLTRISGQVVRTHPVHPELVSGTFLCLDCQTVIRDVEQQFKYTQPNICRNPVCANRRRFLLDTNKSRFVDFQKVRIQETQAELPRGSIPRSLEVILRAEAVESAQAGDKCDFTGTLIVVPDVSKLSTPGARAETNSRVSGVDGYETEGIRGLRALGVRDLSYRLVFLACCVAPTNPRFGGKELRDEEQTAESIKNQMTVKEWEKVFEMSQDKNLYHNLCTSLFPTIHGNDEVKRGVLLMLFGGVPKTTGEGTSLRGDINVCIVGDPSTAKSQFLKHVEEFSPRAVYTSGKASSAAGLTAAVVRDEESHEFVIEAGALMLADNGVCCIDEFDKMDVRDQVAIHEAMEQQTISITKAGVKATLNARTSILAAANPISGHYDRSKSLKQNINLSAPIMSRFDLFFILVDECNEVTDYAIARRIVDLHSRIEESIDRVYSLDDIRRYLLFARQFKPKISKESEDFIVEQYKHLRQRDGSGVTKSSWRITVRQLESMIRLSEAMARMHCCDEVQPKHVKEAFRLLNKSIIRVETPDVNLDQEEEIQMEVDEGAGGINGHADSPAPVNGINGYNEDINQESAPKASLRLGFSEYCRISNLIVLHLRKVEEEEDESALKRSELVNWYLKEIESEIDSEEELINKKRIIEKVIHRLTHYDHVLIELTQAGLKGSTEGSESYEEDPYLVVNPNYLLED
The essentials: as §1

The next assay deals with T8, P13010 (Homo sapiens, UniProt P13010).
T8 construct: endogenous in cells; host or cells: DM93 cells (SILAC)
In outline:
as §1

The next assay deals with T9, P18669 (Homo sapiens, UniProt P18669).
T9 construct: endogenous in cells; host or cells: DM93 (SILAC)
In outline: as §1

The target in a further assay is T10, O75131 (Homo sapiens, UniProt O75131).
T10 construct: endogenous in cells; host or cells: DM93
In outline:
as §1

The next assay concerns the target T11, P23921 (Homo sapiens, UniProt P23921).
T11 construct: Probe-modified proteins from the soluble fraction were conjugated to a desthiobiotin-azide tag; endogenous in cells; host or cells: DM93 (SILAC)
In outline: as §1

A further assay has as its target T12, P25789 (Homo sapiens, UniProt P25789).
T12 construct: endogenous in cells; host or cells: DM93 (SILAC)
In outline: as §1

The next assay addresses T13, Q86VS8 (Homo sapiens, UniProt Q86VS8).
T13 construct: endogenous in cells; host or cells: DM93 cells (SILAC), live-cell treatment
The essentials:
as §1

For another assay, the target named is T14, Q9BUT1 (Homo sapiens, UniProt Q9BUT1).
T14 construct: endogenous in cells; host or cells: DM93 cells (SILAC), treated live; soluble proteome analysed
T14 sequence (Q9BUT1 whole entry): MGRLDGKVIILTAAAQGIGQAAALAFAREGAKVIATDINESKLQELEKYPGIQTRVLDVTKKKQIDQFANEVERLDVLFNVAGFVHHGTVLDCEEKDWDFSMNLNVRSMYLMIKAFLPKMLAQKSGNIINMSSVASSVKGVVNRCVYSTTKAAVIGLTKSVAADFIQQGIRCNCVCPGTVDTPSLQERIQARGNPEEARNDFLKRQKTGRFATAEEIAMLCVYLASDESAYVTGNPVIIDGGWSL
In outline:
as §1

For a further assay, the target named is T15, Q9Y2S7 (Homo sapiens, UniProt Q9Y2S7).
T15 construct: endogenous in cells; host or cells: DM93 cells (SILAC)
T15 sequence (Q9Y2S7 52-368): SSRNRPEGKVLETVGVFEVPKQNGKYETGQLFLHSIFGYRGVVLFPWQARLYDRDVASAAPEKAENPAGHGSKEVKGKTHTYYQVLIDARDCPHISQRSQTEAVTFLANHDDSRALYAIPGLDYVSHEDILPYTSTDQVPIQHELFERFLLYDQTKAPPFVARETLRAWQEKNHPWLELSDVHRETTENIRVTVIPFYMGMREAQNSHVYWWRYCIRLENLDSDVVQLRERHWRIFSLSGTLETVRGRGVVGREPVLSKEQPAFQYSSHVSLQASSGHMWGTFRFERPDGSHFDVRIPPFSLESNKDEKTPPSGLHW
In outline:
as §1

The target in another assay is T16, O43172 (Homo sapiens, UniProt O43172).
T16 construct: endogenous in cells; host or cells: DM93
T16 sequence (O43172 whole entry): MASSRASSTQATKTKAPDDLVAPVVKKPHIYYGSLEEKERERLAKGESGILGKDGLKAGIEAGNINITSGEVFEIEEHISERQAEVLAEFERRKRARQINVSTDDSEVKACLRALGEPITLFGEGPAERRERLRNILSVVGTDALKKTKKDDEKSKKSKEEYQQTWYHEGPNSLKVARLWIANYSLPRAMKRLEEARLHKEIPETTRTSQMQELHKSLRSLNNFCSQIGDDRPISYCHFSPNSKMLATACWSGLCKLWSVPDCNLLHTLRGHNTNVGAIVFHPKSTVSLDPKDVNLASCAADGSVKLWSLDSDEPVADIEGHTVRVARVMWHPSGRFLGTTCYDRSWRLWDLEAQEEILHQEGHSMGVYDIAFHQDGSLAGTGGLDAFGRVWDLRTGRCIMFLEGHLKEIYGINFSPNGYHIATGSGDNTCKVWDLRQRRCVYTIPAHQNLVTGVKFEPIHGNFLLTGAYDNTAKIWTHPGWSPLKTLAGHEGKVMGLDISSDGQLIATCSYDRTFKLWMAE
In outline: as §1

T1 sequence (Q92734 whole entry): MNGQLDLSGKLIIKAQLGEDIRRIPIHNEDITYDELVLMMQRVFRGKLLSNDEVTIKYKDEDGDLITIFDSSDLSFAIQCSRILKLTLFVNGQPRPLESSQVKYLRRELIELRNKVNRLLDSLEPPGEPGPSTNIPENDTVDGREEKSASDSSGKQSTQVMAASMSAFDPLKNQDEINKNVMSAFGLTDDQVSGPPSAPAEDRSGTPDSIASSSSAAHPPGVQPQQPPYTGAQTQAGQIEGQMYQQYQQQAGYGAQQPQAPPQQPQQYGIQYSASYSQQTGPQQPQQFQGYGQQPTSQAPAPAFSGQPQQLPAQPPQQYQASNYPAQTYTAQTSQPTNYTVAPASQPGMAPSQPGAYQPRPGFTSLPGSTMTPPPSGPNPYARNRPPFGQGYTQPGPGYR
T2 sequence (P50749 whole entry): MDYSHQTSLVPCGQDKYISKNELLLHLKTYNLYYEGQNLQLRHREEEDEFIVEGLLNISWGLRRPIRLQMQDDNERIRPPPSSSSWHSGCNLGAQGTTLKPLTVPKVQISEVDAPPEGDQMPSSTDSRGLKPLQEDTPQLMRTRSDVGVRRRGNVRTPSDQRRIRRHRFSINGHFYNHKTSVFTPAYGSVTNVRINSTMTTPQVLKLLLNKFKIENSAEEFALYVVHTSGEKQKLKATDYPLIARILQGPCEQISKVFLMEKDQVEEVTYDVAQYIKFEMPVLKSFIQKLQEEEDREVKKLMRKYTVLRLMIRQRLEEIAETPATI

Consider `O=C(c1ccc(S(=O)(=O)n2cncn2)cc1)N1CCC(c2ccccc2)CC1` [HHS-0701, (4-((1H-1,2,4-triazol-1-yl)sulfonyl)phenyl)(4-phenylpiperidin-1-yl)methanone], for which the “liganded tyrosine site 392” value on Q92734 was “HHS0701.Y (tyrosine sites that showed >80% reductions (SR >5) in probe labeling in cells treated with compounds (liganded sites))”. Also, the “liganded tyrosine site 270” value on P50749 is “HHS0701.Y (tyrosine sites that showed >80% reductions (SR >5) in probe labeling in cells treated with compounds (liganded sites))”. Moreover, at O95373, the “liganded tyrosine site 416” value is given as “HHS0701.Y (tyrosine sites that showed >80% reductions (SR >5) in probe labeling in cells treated with compounds (liganded sites))” and the “liganded tyrosine site 455” value is given as “HHS0701.Y (tyrosine sites that showed >80% reductions (SR >5) in probe labeling in cells treated with compounds (liganded sites))”.
`O=C(NC1CCCCC1)c1ccc(S(=O)(=O)n2cncn2)cc1` [HHS-0301, 4-((1H-1,2,4-triazol-1-yl)sulfonyl)-N-cyclohexylbenzamide]: at P06400, the “liganded tyrosine site 91” value is reported as “HHS0301.Y|HHS0701.Y (tyrosine sites that showed >80% reductions (SR >5) in probe labeling in cells treated with compounds (liganded sites))”.
With `O=C(NCC1CC1)c1ccc(S(=O)(=O)n2cncn2)cc1` [HHS-0201, 4-((1H-1,2,4-triazol-1-yl)sulfonyl)-N-(cyclopropylmethyl)benzamide], the “liganded tyrosine site 192” value at Q13107 was “HHS0201.Y|HHS0301.Y (tyrosine sites that showed >80% reductions (SR >5) in probe labeling in cells treated with compounds (liganded sites))”. Further, the “liganded tyrosine site 160” value on P62993 was “HHS0201.Y (tyrosine sites that showed >80% reductions (SR >5) in probe labeling in cells treated with compounds (liganded sites))”. For the same molecule, the “liganded tyrosine site 783” value at Q14566 was “HHS0201.Y (tyrosine sites that showed >80% reductions (SR >5) in probe labeling in cells treated with compounds (liganded sites))”. Also, the “liganded tyrosine site 295” value at P13010 is recorded as “HHS0201.Y (tyrosine sites that showed >80% reductions (SR >5) in probe labeling in cells treated with compounds (liganded sites))”.
On to `O=C(NCc1ccccc1)c1ccc(S(=O)(=O)n2cncn2)cc1` [HHS-0401, 4-((1H-1,2,4-triazol-1-yl)sulfonyl)-N-benzylbenzamide], for which, at P18669, the “liganded tyrosine site 119” value is listed as “HHS0401.Y (tyrosine sites that showed >80% reductions (SR >5) in probe labeling in cells treated with compounds (liganded sites))”. On O75131, the “liganded tyrosine site 203” value is “HHS0401.Y (tyrosine sites that showed >80% reductions (SR >5) in probe labeling in cells treated with compounds (liganded sites))”. Also, at P23921, the “liganded tyrosine site 485” value is on record as “HHS0401.Y (tyrosine sites that showed >80% reductions (SR >5) in probe labeling in cells treated with compounds (liganded sites))”.
Turning to `O=C(NC1CC1)c1ccc(S(=O)(=O)n2cncn2)cc1` [HHS-0101, 4-((1H-1,2,4-triazol-1-yl)sulfonyl)-N-cyclopropylbenzamide], on P25789, the “liganded tyrosine site 19” value is recorded as “HHS0101.Y (tyrosine sites that showed >80% reductions (SR >5) in probe labeling in cells treated with compounds (liganded sites))” and the “liganded tyrosine site 66” value is “HHS0101.Y|HHS0201.Y|HHS0301.Y (tyrosine sites that showed >80% reductions (SR >5) in probe labeling in cells treated with compounds (liganded sites))”. Further, the “liganded tyrosine site 323” value at Q86VS8 is “HHS0101.Y|HHS0401.Y|HHS0701.Y (tyrosine sites that showed >80% reductions (SR >5) in probe labeling in cells treated with compounds (liganded sites))”. Also, the “liganded tyrosine site 49” value on Q9BUT1 is given as “HHS0101.Y (tyrosine sites that showed >80% reductions (SR >5) in probe labeling in cells treated with compounds (liganded sites))”. For the same molecule, the “liganded tyrosine site 168” value on Q9Y2S7 is given as “HHS0101.Y (tyrosine sites that showed >80% reductions (SR >5) in probe labeling in cells treated with compounds (liganded sites))”. Also, on O43172, the “liganded tyrosine site 31” value is listed as “HHS0101.Y|HHS0301.Y (tyrosine sites that showed >80% reductions (SR >5) in probe labeling in cells treated with compounds (liganded sites))” and the “liganded tyrosine site 32” value is on record as “HHS0101.Y|HHS0301.Y (tyrosine sites that showed >80% reductions (SR >5) in probe labeling in cells treated with compounds (liganded sites))”.
